Measurements published in US20230096766A1, “AMINO ACID HAVING FUNCTIONAL GROUP CAPABLE OF INTERMOLECULAR HYDROGEN BONDING, PEPTIDE COMPOUND CONTAINING SAME AND METHOD FOR PRODUCTION THEREOF” (Chugai Seiyaku Kabushiki Kaisha, priority 2018, published 2023).
*1 amine or outer side, *2 acyl side, *3 side chain or, on linkers, in order; H or OH if unused. Where a SMILES comes first, the peptide text is derived from it. Bridges are numbered along the chain shown (N, C = ends). [ ]: non-standard residue; d: D form. The star is where a group is joined. ξ: configuration not given here. NMeHph(3-OMe-4-CONHMe) = CNC(=O)c1ccc(CC[C@H](NC)C(=O)O)cc1OC; X19 = CC(C)C[C@H](NN(C)[C@H](Cc1ccccc1)N(C)[*:1])C(=O)[*:2]; hPhe(3-OMe,4-CONHMe) = CNC(=O)c1ccc(CC[C@H](N)C(=O)O)cc1OC; NMePhe(3-Cl) = CN[C@@H](Cc1cccc(Cl)c1)C(=O)O; ξGln(SO2Me) = CS(=O)(=O)NC(=O)CCC(N)C(=O)O; NMeF = CN[C@@H](Cc1ccccc1)C(=O)O; NMeGABA = CN(CCCC(=O)[*:2])[*:1]; NMeI = CC[C@H](C)[C@H](NC)C(=O)O; NMeL = CN[C@@H](CC(C)C)C(=O)O; Propyl(2R-OH) = C[C@@H](O)C*; ξNMeF = CNC(Cc1ccccc1)C(=O)O; NMeAbu = CC[C@H](NC)C(=O)O; NMeA = CN[C@@H](C)C(=O)O; Piperidide = C1CCN(*)CC1; CH2CMe2OH = CC(C)(O)C*; X8 = C1COC[C@@H](C*)N1; NBuGly = CCCCNCC(=O)O; NPrGly = CCCNCC(=O)O; X3 = C[C@H](O)C*; Sar = CNCC(=O)O; tBu = CC(C)(C)*

Assay: in vitro
Settings: human, Caco-2, Caco-2

Structure (SMILES)	Papp [×10⁻⁶ cm/s]
CCCCN1CC(=O)N(C)[C@@H](Cc2ccccc2)C(=O)NC(CCC(=O)NS(C)(=O)=O)C(=O)N(C)[C@@H](CC(C)C)C(=O)N[C@@H]([C@@H](C)O)C(=O)N(CCCC)CC(=O)N(C)[C@@H](Cc2ccccc2)C(=O)N(C)[C@@H](CC(C)C)C(=O)N[C@@H](CC(C)C)C(=O)N(C)[C@@H](CC(C)C)C(=O)N[C@H](C(=O)N2CCCCC2)CC1=O (stereo partly drawn) [pd65] ([NBuGly][NMeF][ξGln(SO2Me)][NMeL]T[NBuGly][NMeF][NMeL]L[NMeL]D-Piperidide; lactam N-11)	0.06

Same assay, conditions: human, Caco-2, Caco-2 (cm/sec)

Structure (SMILES)	Papp [×10⁻⁶ cm/s]
CCCCN1CC(=O)N(C)[C@@H](Cc2ccccc2)C(=O)N(C)[C@@H](CC(C)C)C(=O)N[C@@H](Cc2ccc(O)cc2)C(=O)N(C)[C@@H](CC(C)C)C(=O)N[C@H](C(=O)N2CCCCC2)CC(=O)N(C)CC(=O)N(C)[C@@H](CC(C)C)C(=O)N[C@@H]([C@@H](C)CC)C(=O)N(C)[C@@H](CC(C)C)C(=O)N[C@@H]([C@@H](C)O)C1=O [Compound F08] ([Sar][NMeL]I[NMeL]T[NBuGly][NMeF][NMeL]Y[NMeL]D-Piperidide; lactam N-11)	0.05
CCCN1CC(=O)N(C)[C@@H](CC(C)C)C(=O)N[C@@H](COCC(C)(C)O)C(=O)N(C)[C@@H](Cc2ccccc2)C(=O)N(C)[C@@H](CC(C)C)C(=O)N[C@H](C(=O)N2CCCCC2)CC(=O)N[C@H](C(C)C)C(=O)N(C)[C@@H](Cc2ccccc2)C(=O)N[C@@H](CC(C)C)C(=O)N(C)[C@@H](CC(C)C)C(=O)N[C@@H]([C@@H](C)O)C1=O [AP10] ([dV][NMeF]L[NMeL]T[NPrGly][NMeL]S(CH2CMe2OH)[NMeF][NMeL]D-Piperidide; lactam N-11)	1.5
CC[C@H](C)[C@@H]1NC(=O)[C@H](CC(C)C)N(C)C(=O)CCCN(C)C(=O)C[C@@H](C(=O)N2CCCCC2)NC(=O)[C@H](CC(C)C)N(C)C(=O)[C@H](CCc2ccc(C(=O)NC)c(OC)c2)N(C)C(=O)[C@H]([C@@H](C)O)NC(=O)[C@H](CC(C)C)N(C)C(=O)[C@H](COC(C)(C)C)NC(=O)[C@H](CC(C)C)N(C)C(=O)[C@H](Cc2ccccc2)N(C)C1=O [AP228] ([NMeGABA][NMeL]I[NMeF][NMeL]S(tBu)[NMeL]T[NMeHph(3-OMe-4-CONHMe)][NMeL]D-Piperidide; lactam N-11)	0.84
CC(C)C[C@@H]1NN(C)[C@H](Cc2ccccc2)N(C)C(=O)[C@@H](C(C)C)NC(=O)C[C@@H](C(=O)N2CCCCC2)NC(=O)[C@H](CC(C)C)N(C)C(=O)[C@H](CC(C)C)N(C)C(=O)[C@H](Cc2ccc(O)cc2)NC(=O)[C@H](CC(C)C)N(C)C(=O)CN(C)C(=O)[C@H]([C@@H](C)O)NC(=O)[C@H](CC(C)C)N(C)C1=O [Compound F01] ([dV][X19][NMeL]T[Sar][NMeL]Y[NMeL][NMeL]D-Piperidide; lactam N-10)	0.32
CC[C@H](C)[C@@H]1NC(=O)[C@H](CC(C)C)N(C)C(=O)CCCN(C)C(=O)C[C@@H](C(=O)N2CCCCC2)NC(=O)[C@H](CC(C)C)N(C)C(=O)[C@H](CC(C)C)N(C)C(=O)[C@H]([C@@H](C)O)NC(=O)[C@H](CC(C)C)N(C)C(=O)[C@H](COC[C@H](C)O)NC(=O)[C@H](Cc2cccc(Cl)c2)N(C)C(=O)[C@H](Cc2ccccc2)N(C)C1=O [AP64] ([NMeGABA][NMeL]I[NMeF][NMePhe(3-Cl)]S(X3)[NMeL]T[NMeL][NMeL]D-Piperidide; lactam N-11)	0.35
CCCCN1CC(=O)N(C)[C@@H](CC(C)C)C(=O)N[C@H](C(=O)N2CCCCC2)CC(=O)N(C)[C@@H](C)C(=O)N[C@@H](COC[C@@H]2COCCN2)C(=O)N(C)[C@@H](CC(C)C)C(=O)N(C)[C@@H](CC)C(=O)N[C@@H](C(C)C)C(=O)N(C)[C@@H](Cc2ccccc2)C(=O)N(C)[C@@H](CC(C)C)C(=O)N[C@@H]([C@@H](C)O)C1=O [AP243] ([NMeA]S(X8)[NMeL][NMeAbu]V[NMeF][NMeL]T[NBuGly][NMeL]D-Piperidide; lactam N-11)	0.46
CC[C@H]1C(=O)N[C@@H](Cc2ccc(O)cc2)C(=O)N(C)[C@@H](CC(C)C)C(=O)N(C)[C@@H](CC(C)C)C(=O)N[C@@H](C(C)C)C(=O)N(C)[C@@H](Cc2ccccc2)C(=O)N(C)[C@@H](CC(C)C)C(=O)N[C@@H]([C@@H](C)O)C(=O)N(C)CC(=O)N(C)[C@@H](CC(C)C)C(=O)N[C@H](C(=O)N2CCCCC2)CC(=O)N1C [Compound F06] ([NMeAbu]Y[NMeL][NMeL]V[NMeF][NMeL]T[Sar][NMeL]D-Piperidide; lactam N-11)	0.23
CC[C@H](C)[C@H]1C(=O)N[C@@H](C(C)C)C(=O)N(C)CC(=O)N(C)[C@@H](CC(C)C)C(=O)N[C@H](C(=O)N2CCCCC2)CC(=O)N(C)[C@@H](C)C(=O)N[C@@H](COC[C@@H](C)O)C(=O)N(C)[C@@H](CC(C)C)C(=O)N(C)[C@@H](Cc2ccccc2)C(=O)N[C@@H](CC(C)C)C(=O)N(C)[C@@H](Cc2ccccc2)C(=O)N1C [AP86] ([NMeA]S(Propyl(2R-OH))[NMeL][NMeF]L[NMeF][NMeI]V[Sar][NMeL]D-Piperidide; lactam N-11)	3.7
CCCCN1CC(=O)N(C)[C@@H](Cc2ccccc2)C(=O)N(C)[C@@H](CC(C)C)C(=O)N[C@@H](COC(C)(C)C)C(=O)N(C)[C@@H](CC(C)C)C(=O)N[C@H](C(=O)N2CCCCC2)CC(=O)N(C)CC(=O)N(C)[C@@H](CCc2ccc(C(=O)NC)c(OC)c2)C(=O)N[C@@H](C(C)C)C(=O)N(C)[C@@H](CC(C)C)C(=O)N[C@@H]([C@@H](C)O)C1=O [AP231] ([Sar][NMeHph(3-OMe-4-CONHMe)]V[NMeL]T[NBuGly][NMeF][NMeL]S(tBu)[NMeL]D-Piperidide; lactam N-11)	1
CC[C@H]1C(=O)N[C@@H](CC(C)C)C(=O)N(C)[C@@H](CC(C)C)C(=O)N(C)C(Cc2ccccc2)C(=O)N[C@@H](CCc2ccc(C(=O)NC)c(OC)c2)C(=O)N(C)[C@@H](CC(C)C)C(=O)N(C)[C@@H](CC(C)C)C(=O)N[C@@H]([C@@H](C)O)C(=O)N(C)CC(=O)N(C)[C@@H](CC(C)C)C(=O)N[C@H](C(=O)N2CCCCC2)CC(=O)N1C (stereo partly drawn) [AP204] ([NMeAbu]L[NMeL][ξNMeF][hPhe(3-OMe,4-CONHMe)][NMeL][NMeL]T[Sar][NMeL]D-Piperidide; lactam N-11)	1.6

Same assay, conditions: human, Caco-2, Caco-2 (cm/sec) Papp

Structure (SMILES)	Papp [×10⁻⁶ cm/s]
CC(C)C[C@H]1C(=O)N(C)[C@@H](Cc2ccccc2)C(=O)N(C)[C@@H](Cc2ccccc2)C(=O)N[C@@H]([C@@H](C)O)C(=O)N(C)[C@@H](C)C(=O)N(C)[C@@H](Cc2ccccc2)C(=O)N[C@H](C(=O)N2CCCCC2)CC(=O)N(C)[C@@H](C)C(=O)N(C)[C@@H](Cc2ccccc2)C(=O)N(C)[C@@H](CC(C)C)C(=O)N[C@@H](C(C)C)C(=O)N1C [pd233] ([NMeA][NMeF][NMeL]V[NMeL][NMeF][NMeF]T[NMeA][NMeF]D-Piperidide; lactam N-11)	0.17

Same assay, conditions: human, Caco-2, Caco-2 (membrane permeability)

Structure (SMILES)	Papp [×10⁻⁶ cm/s]
CCCCN1CC(=O)N(C)[C@@H](CC(C)C)C(=O)N[C@@H](CC(C)C)C(=O)N(C)[C@@H](Cc2ccccc2)C(=O)N(C)[C@@H]([C@@H](C)CC)C(=O)N[C@H](C(=O)N2CCCCC2)CC(=O)N[C@H](CC(C)C)C(=O)N(C)[C@@H](Cc2ccccc2)C(=O)N[C@@H](CCC(=O)NC)C(=O)N(C)[C@@H](CC(C)C)C(=O)N[C@@H]([C@@H](C)O)C1=O [Compound J01] ([dL][NMeF]E(NHMe)[NMeL]T[NBuGly][NMeL]L[NMeF][NMeI]D-Piperidide; lactam N-11)	0.062
